Assay results taken from publication PMC8778818, “Synthesis, Structural Characterization and Anticancer Activity of New 5-Trifluoromethyl-2-thioxo-thiazolo[4,5-d]pyrimidine Derivatives” (Pharmaceuticals, 2022).

What was measured:
[1] = test system: ACHN; test: NCI-60 screen, Renal Cancer ACHN; type: cell-based, human; details: for Growth of Cells (%): 10^−5 M one dose
[2] = test system: SNB-19; test: NCI-60 screen, CNS Cancer SNB-19; type: cell-based, human; details: for Growth of Cells (%): SNB-19, 10^−5 M one dose
[3] = test system: KM12; test: NCI-60 screen, Colon Cancer KM12; type: cell-based, human; details: for Growth of Cells (%): KM12, 10^−5 M one dose
[4] = test system: SNB-75; test: NCI-60 screen, CNS Cancer SNB-75; type: cell-based, human; details: for Growth of Cells (%): SNB-75, 10^−5 M one dose
[5] = test system: DU-145; test: NCI-60 screen, Prostate C. DU-145; type: cell-based; details: for Growth of Cells (%): DU-145, 10^−5 M one dose
[6] = test system: K-562; test: NCI-60 screen, Leukemia K-562; type: cell-based, human; details: for Growth of Cells (%): K-562, 10^−5 M one dose
[7] = test system: SK-MEL-2; test: NCI-60 screen, Melanoma SK-MEL-2; type: cell-based, human; details: for Growth of Cells (%): SK-MEL-2, 10^−5 M one dose
[8] = test system: SK-MEL-28; test: NCI-60 screen, Melanoma SK-MEL-28; type: cell-based; details: for Growth of Cells (%): SK-MEL-28, 10^−5 M one dose
[9] = test system: SW620; test: NCI-60 screen, Colon Cancer SW620; type: cell-based, human; details: for Growth of Cells (%): SW620, 10^−5 M one dose
[10] = test system: CCRF-CEM; test: NCI-60 screen, Leukemia CCRF-CEM; type: cell-based, human; details: for Growth of Cells (%): 10^−5 M one dose
[11] = test system: DU145; test: MTT cell viability assay, DU145; type: cell-based, human; details: Homo sapiens, DU-145; DU145, MTT, 72 h, mean ± SD
Procedure: Twelve compounds (2a-e, 3a-d and 4a-c) at a concentration range of 50–5000 μM were tested for their antiproliferative potential against four human cancer cell lines (A375—melanotic melanoma, C32—amelanotic melanoma, DU145—prostate cancer androgen-independent, MCF-7/WT—breast adenocarcinoma) and two normal cell lines: Chinese Hamster Ovary (CHO-K1) and immortalized human keratinocytes from histologically normal skin (HaCaT).
To determine the antiproliferative activity of newly synthesized compounds, the following cell lines were used: human melanotic melanoma cell line (A375), human amelanotic melanoma cell line (C32), human breast adenocarcinoma cell line (MCF-7/WT), human prostate cancer androgen-independent (DU145) and two normal cell lines: hamster ovarian (CHO-K1) and immortalized human keratinocytes from histologically normal skin (HaCaT). The cells were obtained from the cell line bank of the Department of Molecular and Cellular Biology, Wroclaw Medical University. A375, C32, MCF-7/WT, DU145 and HaCaT cells were grown in a monolayer cultured in Dulbecco’s Modified Eagle’s Medium (DMEM, Sigma-Aldrich, Poznań, Poland), supplemented with 10% of fetal bovine serum (FBS, Gibco, Paisley, UK) and 1% of antibiotics (penicillin/streptomycin, Sigma-Aldrich) and CHO-K1 were grown in HAM’s F-12 medium (Sigma-Aldrich), supplemented with 10% fetal bovine serum (FBS, Gibco) and 1% of antibiotics (penicillin/streptomycin, Sigma-Aldrich). Cell lines were cultured in the polystyrene flasks 25 or 75 cm^2 (Thermo Fisher Scientific, Waltham, MA, USA), which were stored in 37 °C and 5% CO2 in a humidified 95% atmosphere (SteriCult, Thermo Scientific, Alab). The cell medium was exchanged twice a week. The exponentially growing cells were used throughout the experiments. The cells were rinsed with phosphate-buffered saline (PBS, Sigma-Aldrich) and trypsinized by Trypsin-EDTA 0.25% solution (Sigma-Aldrich).
The influence of the compounds was performed in a monolayer culture on cancer and normal cells. Compounds were initially dissolved in DMSO; further dilutions of the compound were performed in Dulbecco’s Modified Eagle’s Medium supplemented with 10% FBS. Compounds were tested in a 50–5000 µM concentration range. In the in vitro experiments, the concentrations of DMSO in the final solution of the compounds were used 0.05%; 0.1%; 0.5%; 1%, respectively.
Cell viability was determined using the MTT colorimetric assay. All cell lines were seeded into 96-well plates to a density of 3 × 10^4 cells/well. After 24 h, the culture supernatants were removed and appropriate dilutions of compounds in the culture medium (200 µL/well) were added to the cells’ monolayer cultures and incubated for an additional 72 h. After 72 h of exposition to the compounds and the removal of the culture medium, cell viability was determined by reducing the yellow dye 3-(4,5-dimethyl-2-thiazol)-2,5-diphenyl-2H-tetrazolium bromide (MTT assay, Sigma Saint Louis, MO, USA; In Vitro Toxicology Assay) to a blue formazan product. The absorbance of the resulting solutions in three duplicate experiments was measured at the wavelength of 560 nm in a microplate reader (EnSpire, Perkin Elmer, Kraków, Poland). MTT assay is a colorimetric method that estimates the rate of metabolism in viable cells. Absorbance is directly proportional to the number of viable cells. All the experiments were performed three times and the mean absorbance values were calculated. The methodology for the evaluation of the growth of human cancer and normal cells was described previously. The cell viability in each group was expressed as a percentage of control (untreated) cells.

[12] = test system: LOX IMVI; test: NCI-60 screen, Melanoma LOX IMVI; type: cell-based, human; details: for Growth of Cells (%): 10^−5 M one dose
[13] = test system: SR; test: NCI-60 screen, Leukemia SR; type: cell-based, human; details: for Growth of Cells (%): 10^−5 M one dose
[14] = test system: NCI-H522; test: NCI-60 screen, Non-Small Cell Lung Cancer NCI-H522; type: cell-based, human; details: for Growth of Cells (%): NCI-H522, 10^−5 M one dose
[15] = test system: CAKI-1; test: NCI-60 screen, Renal Cancer CAKI-1; type: cell-based, human; details: for Growth of Cells (%): CAKI-1, 10^−5 M one dose
[16] = Homo sapiens, five doses 10^−4–10^−8 M
[17] = Homo sapiens, five doses 10^−4–10^−8 M, read-out: log LC50 (the source's name) (converted)
[18] = Homo sapiens, SNB-19, five doses 10^−4–10^−8 M
[19] = Homo sapiens, SNB-75, five doses 10^−4–10^−8 M
[20] = Homo sapiens, SK-MEL-2, five doses 10^−4–10^−8 M
[21] = Homo sapiens, SW-620, SW620, five doses 10^−4–10^−8 M
[22] = Homo sapiens, NCI-H522, five doses 10^−4–10^−8 M

O=c1[nH]c(C(F)(F)F)nc2c1sc(=S)n2-c1ccccc1 [Compound 2b, 3-phenyl-2-thioxo-5-(trifluoromethyl)-2,3-dihydro[1, 3]thiazolo[4,5-d]pyrimidin-7(6H)-one]
Growth of Cells (%) [1]: 110.42%
Growth of Cells (%) [2]: 102.20%
Growth of Cells (%) [3]: 100.96%
Growth of Cells (%) [4]: 91.21%
Growth of Cells (%) [5]: 109.40%
Growth of Cells (%) [6]: 115.47%
Growth of Cells (%) [7]: 97.36%
Growth of Cells (%) [8]: 102.86%
Growth of Cells (%) [9]: 95.09%
Growth of Cells (%) [10]: 96.48%
IC50 [11]: 356 ± 14.7 µM
Growth of Cells (%) [12]: 84.58%
Growth of Cells (%) [13]: 105.93%
Growth of Cells (%) [14]: 90.35%
Growth of Cells (%) [15]: 124.11%

FC(F)(F)c1nc(Cl)c2sc(=S)n(-c3ccccc3)c2n1 [Compound 3b, 7-chloro-3-phenyl-5-(trifluoromethyl)[1, 3]thiazolo[4,5-d]pyrimidine-2(3H)-thione]
Growth of Cells (%) [1]: 27.40%
GI50 [1, 16]: 1.74 µM
CC50 [1, 17]: 6.31 µM
log TGI ([1]; five doses 10^−4–10^−8 M): −5.48 log M
GI50 [2, 18]: 1.78 µM
LC50 [2, 18]: 5.89 µM
Growth of Cells (%) [2]: 98.46%
log TGI ([2]; SNB-19, five doses 10^−4–10^−8 M): −5.49 log M
GI50 ([3]; Homo sapiens, KM12, five doses 10^−4–10^−8 M): 2.29 µM
CC50 ([3]; Homo sapiens, KM12, five doses 10^−4–10^−8 M, read-out: log LC50 (the source's name) (converted)): 14.5 µM
Growth of Cells (%) [3]: 90.93%
log TGI ([3]; KM12, five doses 10^−4–10^−8 M): −5.30 log M
GI50 [4, 19]: 2 µM
LC50 [4, 19]: 8.91 µM
log TGI ([4]; SNB-75, five doses 10^−4–10^−8 M): −5.38 log M
Growth of Cells (%) [5]: 9.04%
log TGI ([5]; DU-145, five doses 10^−4–10^−8 M): −5.46 log M
GI50 ([5]; Homo sapiens, DU-145, read-out: log GI50 (converted)): 1.86 µM
CC50 ([5]; Homo sapiens, DU-145, five doses 10^−4–10^−8 M, read-out: log LC50 (the source's name) (converted)): 6.46 µM
GI50 ([6]; Homo sapiens, K562, K-562, five doses 10^−4–10^−8 M): 0.692 µM
CC50 ([6]; Homo sapiens, K562, K-562, five doses 10^−4–10^−8 M, read-out: log LC50 (the source's name) (converted)): > 100 µM
Growth of Cells (%) [6]: 33.07%
log TGI ([6]; K-562, five doses 10^−4–10^−8 M): −5.36 log M
GI50 [7, 20]: 2 µM
LC50 [7, 20]: 7.24 µM
Growth of Cells (%) [7]: 55.66%
log TGI ([7]; SK-MEL-2, five doses 10^−4–10^−8 M): −5.42 log M
GI50 ([8]; Homo sapiens, SK-MEL-28, five doses 10^−4–10^−8 M): 1.95 µM
CC50 ([8]; Homo sapiens, SK-MEL-28, five doses 10^−4–10^−8 M, read-out: log LC50 (the source's name) (converted)): 6.46 µM
Growth of Cells (%) [8]: −62.53%
log TGI ([8]; SK-MEL-28, five doses 10^−4–10^−8 M): −5.45 log M
GI50 [9, 21]: 2.14 µM
LC50 (50% lethal concentration) [9, 21]: 21.4 µM
Growth of Cells (%) [9]: −63.05%
log TGI ([9]; SW620, five doses 10^−4–10^−8 M): −5.32 log M
Growth of Cells (%) [10]: −51.41%
GI50 [10, 16]: 0.933 µM
CC50 [10, 17]: > 100 µM
log TGI ([10]; five doses 10^−4–10^−8 M): −5.50 log M
IC50 [11]: 55.1 ± 1.1 µM
Growth of Cells (%) [12]: 3.11%
GI50 [12, 16]: 1.78 µM
LC50 [12, 16]: 6.17 µM
log TGI ([12]; five doses 10^−4–10^−8 M): −5.48 log M
GI50 [13, 16]: 0.437 µM
CC50 [13, 17]: > 100 µM
log TGI ([13]; five doses 10^−4–10^−8 M): −5.70 log M
GI50 [14, 22]: 0.204 µM
LC50 [14, 22]: 1.51 µM
Growth of Cells (%) [14]: −67.57%
log TGI ([14]; NCI-H522, five doses 10^−4–10^−8 M): −6.33 log M
Growth of Cells (%) [15]: 81.74%
log TGI ([15]; CAKI-1, five doses 10^−4–10^−8 M): −5.51 log M
GI50 ([15]; Homo sapiens, CAKI-1, five doses 10^−4–10^−8 M): 1.66 µM
CC50 ([15]; Homo sapiens, CAKI-1, five doses 10^−4–10^−8 M, read-out: log LC50 (the source's name) (converted)): 5.75 µM

CCNc1nc(C(F)(F)F)nc2c1sc(=S)n2-c1ccccc1 [Compound 4b, 7-(ethylamino)-3-phenyl-5-(trifluoromethyl)[1, 3]thiazolo[4,5-d]pyrimidine-2(3H)-thione]
Growth of Cells (%) [1]: 93.13%
Growth of Cells (%) [2]: 106.58%
Growth of Cells (%) [3]: 89.17%
Growth of Cells (%) [4]: 99.24%
Growth of Cells (%) [5]: 101.28%
Growth of Cells (%) [6]: 102.59%
Growth of Cells (%) [7]: 88.08%
Growth of Cells (%) [8]: 112.46%
Growth of Cells (%) [9]: 106.24%
IC50 [11]: 323 ± 13.8 µM
Growth of Cells (%) [12]: 88.57%
Growth of Cells (%) [13]: 83.46%
Growth of Cells (%) [14]: 70.40%
Growth of Cells (%) [15]: 93.63%

Fc1ccc(CNc2nc(C(F)(F)F)nc3c2sc(=S)n3-c2ccccc2)cc1 [Compound 4c]
Growth of Cells (%) [1]: 99.14%
Growth of Cells (%) [2]: 106.48%
Growth of Cells (%) [3]: 113.23%
Growth of Cells (%) [4]: 103.11%
Growth of Cells (%) [5]: 122.63%
Growth of Cells (%) [6]: 107.45%
Growth of Cells (%) [7]: 95.77%
Growth of Cells (%) [8]: 110.02%
Growth of Cells (%) [9]: 114.74%
Growth of Cells (%) [10]: 102.97%
IC50 [11]: 237 ± 10.3 µM
Growth of Cells (%) [12]: 109.59%
Growth of Cells (%) [13]: 94.72%
Growth of Cells (%) [14]: 90.73%
Growth of Cells (%) [15]: 94.38%
